Some test systems named below: LOX IMVI melanoma; EKVX NSCLC; SK-MEL-2 melanoma; MCF7 breast; NCI-H460 lung; HOP-92 NSCLC; HCC-2998 colon; SNB-75 CNS.
Holding throughout (experiment): NCI tumour cell line growth inhibition, 48 h

Each structure is given as a SMILES string.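 Interpolation was linear, between the two tested concentrations surrounding the appropriate level; five concentrations were tested over 48 hours in 96-well plates. Abbreviation: GI50, concentration required for 50% inhibition of growth. TGI is the concentration that stops growth completely.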 A value given as a limit tells only on which side of the number the result lay.

`O=C(/C=C/c1ccccc1)Nc1ncc(Cc2ccccc2)s1`: the GI50 was 0.139 µM in the experiment on LOX IMVI melanoma; 0.44 µM in the experiment on EKVX NSCLC; 0.479 µM in the experiment with SK-MEL-2 melanoma; 0.139 µM in the experiment on MCF7 breast; 0.289 µM with NCI-H460 lung; 4.72 µM in the experiment with HOP-92 NSCLC. Further, the results for the GI50 in the experiment with HCC-2998 colon and in the experiment on SNB-75 CNS were 0.303 µM and 0.138 µM, respectively. Also, the TGI with LOX IMVI melanoma was above 23.2 µM; with EKVX NSCLC, above 100 µM; in the experiment on SK-MEL-2 melanoma, above 69.1 µM; in the experiment on MCF7 breast it was above 100 µM; in the experiment with NCI-H460 lung it was 5.01 µM; in the experiment on HOP-92 NSCLC, above 84.8 µM. Besides, the TGI with HCC-2998 colon is 3.42 µM; in the experiment on SNB-75 CNS, 1.99 µM.
For `C=C(C)[C@@H]1CC[C@]2(C(=O)N3CCN(C)CC3)CC[C@]3(C)[C@H](CC[C@@H]4[C@@]5(C)C/C(=C/c6ccncc6)[C@H](O)C(C)(C)[C@@H]5CC[C@]43C)[C@@H]12`, the GI50 in the experiment on LOX IMVI melanoma is 4.01 µM; in the experiment on EKVX NSCLC, 6.04 µM; with SK-MEL-2 melanoma, 8.41 µM; in the experiment on MCF7 breast it was 3.29 µM; in the experiment with NCI-H460 lung, 3.95 µM; with HOP-92 NSCLC, 2.88 µM. Also, the GI50 was 3.36 µM with HCC-2998 colon and 51.4 µM with SNB-75 CNS. Also, the TGI in the experiment with LOX IMVI melanoma worked out at 17.3 µM; with EKVX NSCLC, 43.2 µM; with SK-MEL-2 melanoma, 26.2 µM; in the experiment with MCF7 breast, 13.8 µM; in the experiment with NCI-H460 lung, 17 µM; in the experiment on HOP-92 NSCLC, 19.2 µM. Moreover, the TGI was 13.1 µM with HCC-2998 colon and above 100 µM with SNB-75 CNS.
Consider `COc1ccc(C2CC(c3ccc4ccccc4c3)=NN2/C=C2\SC(=S)N(NC(=O)Cc3ccccc3Nc3c(Cl)cccc3Cl)C2=O)cc1` (stereo unspecified), for which the GI50 in the experiment with LOX IMVI melanoma was 0.556 µM; in the experiment on EKVX NSCLC, 1.45 µM; in the experiment on SK-MEL-2 melanoma it was 2.95 µM; with MCF7 breast, 0.361 µM; in the experiment with NCI-H460 lung, 0.388 µM; with HOP-92 NSCLC, 1.27 µM. Also, the GI50 in the experiment on HCC-2998 colon was 1.39 µM; in the experiment with SNB-75 CNS it was 0.257 µM. Moreover, the TGI in the experiment with LOX IMVI melanoma was above 54 µM; with EKVX NSCLC it was above 61.5 µM; in the experiment with SK-MEL-2 melanoma, 18.8 µM; in the experiment with MCF7 breast, above 50.5 µM; in the experiment with NCI-H460 lung, above 34 µM; with HOP-92 NSCLC, above 53.4 µM. Further, the TGI was above 33.3 µM with HCC-2998 colon and 1.4 µM in the experiment with SNB-75 CNS.
Turning to `O=C1C2=C(C(=O)c3c(O)ccc(O)c31)N(c1cccnc1)Cc1ccccc1O2`, the GI50 in the experiment with LOX IMVI melanoma was 0.127 µM; with EKVX NSCLC, 1.18 µM; in the experiment with SK-MEL-2 melanoma, 1.54 µM; in the experiment with MCF7 breast, 0.191 µM; in the experiment with NCI-H460 lung it was 2.6 µM; with HOP-92 NSCLC, 0.207 µM. Besides, the GI50 is 1.52 µM in the experiment with HCC-2998 colon and 0.615 µM in the experiment on SNB-75 CNS. Further, the TGI was 0.56 µM in the experiment on LOX IMVI melanoma; 5.74 µM with EKVX NSCLC; 4.78 µM with SK-MEL-2 melanoma; 0.912 µM in the experiment with MCF7 breast; 6.78 µM in the experiment on NCI-H460 lung; 0.459 µM with HOP-92 NSCLC. Further, the TGI with HCC-2998 colon came to 3.23 µM; with SNB-75 CNS it was 2.15 µM.
On to `Cc1cc(C)nc(NS(=O)(=O)c2ccc(Nc3nc4nc(NCc5ccccc5)nc(-c5ccc(O)cc5)c4c(=O)[nH]3)cc2)n1`, for which the GI50 was 25.2 µM with LOX IMVI melanoma; 35.1 µM in the experiment with EKVX NSCLC; 20.7 µM in the experiment with SK-MEL-2 melanoma; 9.58 µM in the experiment with MCF7 breast; 49.9 µM with NCI-H460 lung; 14.6 µM with HOP-92 NSCLC. In addition, the GI50 with HCC-2998 colon was above 100 µM; in the experiment with SNB-75 CNS it was 64.6 µM. The TGI in the experiment with LOX IMVI melanoma is above 100 µM; with EKVX NSCLC, above 100 µM; in the experiment with SK-MEL-2 melanoma, above 100 µM; in the experiment with MCF7 breast, 56.8 µM; in the experiment with NCI-H460 lung, above 100 µM; in the experiment with HOP-92 NSCLC, 61.3 µM. Moreover, the TGI in the experiment on HCC-2998 colon and in the experiment with SNB-75 CNS was above 100 µM in each case.
`C=C(c1ccc(OC)c(/C=C/C(=O)c2cc(OC)c(OC)c(OC)c2)c1)c1cc(OC)c(OC)c(OC)c1`: the GI50 was 0.582 µM with LOX IMVI melanoma; 2.23 µM in the experiment on EKVX NSCLC; 2.58 µM in the experiment with SK-MEL-2 melanoma; 0.44 µM in the experiment on MCF7 breast; 1.44 µM in the experiment with NCI-H460 lung; 1.14 µM with HOP-92 NSCLC. In addition, the GI50 in the experiment with HCC-2998 colon is 1.84 µM; in the experiment on SNB-75 CNS, 0.892 µM. In addition, the TGI in the experiment with LOX IMVI melanoma amounted to 1.95 µM; in the experiment with EKVX NSCLC it was 9.74 µM; with SK-MEL-2 melanoma, 12.4 µM; in the experiment with MCF7 breast, 4.03 µM; in the experiment on NCI-H460 lung it was 3.54 µM; in the experiment on HOP-92 NSCLC, 6.9 µM. In addition, the TGI in the experiment on HCC-2998 colon was 3.37 µM; in the experiment with SNB-75 CNS, 7.08 µM.
In the case of `Cc1ccc(C(=O)Nc2ccc(CN3CCN(C)CC3)c(C(F)(F)F)c2)cc1C#Cc1cnc(N)c2ccc(C#N)cc12`, the GI50 in the experiment on LOX IMVI melanoma is 0.0419 µM; in the experiment with EKVX NSCLC, 9.46 µM; with SK-MEL-2 melanoma it was 0.0327 µM; in the experiment with MCF7 breast, 4.21 µM; in the experiment on NCI-H460 lung, 0.557 µM; in the experiment on HOP-92 NSCLC, 0.0134 µM. The GI50 is 9.41 µM with HCC-2998 colon and 0.0468 µM in the experiment with SNB-75 CNS. Further, the TGI is 6.79 µM in the experiment with LOX IMVI melanoma; above 50 µM with EKVX NSCLC; 9.51 µM in the experiment on SK-MEL-2 melanoma; 29.6 µM in the experiment on MCF7 breast; 16.6 µM with NCI-H460 lung; 0.714 µM in the experiment on HOP-92 NSCLC. Moreover, the TGI with HCC-2998 colon is above 50 µM; with SNB-75 CNS it was 13.4 µM.
Regarding `O=C(CC(O)c1cccnc1)CC(O)c1cccnc1` (stereo unspecified), the TGI in the experiment with LOX IMVI melanoma came to 15.4 µM; with EKVX NSCLC, 43.8 µM; in the experiment on SK-MEL-2 melanoma, 37 µM; in the experiment on MCF7 breast it was 20 µM; in the experiment with NCI-H460 lung, 35.9 µM; in the experiment on HOP-92 NSCLC, 34.5 µM. The TGI with HCC-2998 colon was found to be 28.6 µM; with SNB-75 CNS, 35.4 µM.
As to `C/C(=N\NC(=O)c1cccc(S(=O)(=O)N2CCN(C)CC2)c1)c1cc(Cl)ccc1O`, the GI50 in the experiment with LOX IMVI melanoma was 0.518 µM; in the experiment on EKVX NSCLC, 0.354 µM; in the experiment with SK-MEL-2 melanoma it was 3.46 µM; in the experiment with MCF7 breast, 0.423 µM; with NCI-H460 lung it was 0.395 µM; with HOP-92 NSCLC it was 4.85 µM. For the same compound, the GI50 was 0.571 µM in the experiment with HCC-2998 colon and 0.648 µM in the experiment on SNB-75 CNS. The TGI in the experiment with LOX IMVI melanoma is 13 µM; with EKVX NSCLC, above 63.1 µM; with SK-MEL-2 melanoma, above 72.6 µM; in the experiment with MCF7 breast, above 100 µM; in the experiment with NCI-H460 lung it was above 32 µM; in the experiment on HOP-92 NSCLC it was above 90.1 µM. Besides, the TGI was determined as 28.7 µM with HCC-2998 colon and 32.3 µM in the experiment on SNB-75 CNS.

Source of the values: PubChem BioAssay (NCI).
